In PubChem BioAssay (NCI) one finds TGI data, which are given here for 28 molecules.

Values joined by “and” are separate entries in the source; they are usually repeats but may differ in a detail not shown here. Equal entries are not always repeated.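 Tested at 5 concentrations; 48 h exposure; 96-well plates; endpoints linearly interpolated, else capped at highest concentration. TGI: concentration producing complete growth inhibition.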

Common to all, as to assay: NCI tumour cell line growth inhibition, 48 h
Test [1] has as its system SN12C renal.
Test [2] concerns HCC-2998 colon.
The test system of test [3] is A498 renal.
The subject of test [4] is NCI-H226 lung.
The test system of test [5] is HT29 colon.
The subject of test [6] is T-47D breast.
Test [7] deals with NCI-H23 lung.
Test [8] concerns SNB-19 CNS.
In test [9] the test system is OVCAR-4 ovarian.
Test [10] concerns SNB-75 CNS.
The subject of test [11] is MDA-N.
In test [12] the test system is HS 578T breast.

Take `C[Si](C)(OCCS(=O)(=O)O)C1S(=O)(=O)OCCOS1(=O)=O`: the TGI in [1], in test [2], in test [3], in test [4], in test [5] and in [6] was greater than 100 µM throughout. Also, the TGI in [7] was greater than 100 µM; in [8] it was greater than 100 µM; in [9], greater than 100 µM; in test [10], 59.9 µM; in test [11] it was greater than 100 µM.
As to `COc1cccc(-c2cc(=O)c3c(C)ccnc3[nH]2)c1`, the TGI was greater than 100 µM in test [1]; 0.27 µM in [2]; greater than 77.1 µM in test [3]; 0.0742 µM in test [4]; greater than 100 µM in test [5]; greater than 100 µM in test [6]. Besides, the TGI in test [7] was greater than 100 µM; in test [8] it was greater than 100 µM; in test [12], greater than 100 µM; in test [9] it was greater than 100 µM; in test [10], 0.0417 µM.
On to `COC(=O)C1C2C=CC(C2)N1[C@@H](C)c1ccccc1` (stereo partly specified), for which the TGI in test [1], in [2], in test [3], in [5], in test [7] and in [8] was greater than 100 µM in each case. In [10], this molecule showed a TGI greater than 100 µM.
For the molecule `COc1ccc(C(C#N)NNc2nc(C)cc(=O)[nH]2)cc1OC` (stereo unspecified), the TGI in test [1], in test [4], in test [5], in test [7], in test [9] and in [10] was greater than 100 µM throughout.
With `CC(=O)NC1=C(C)C(=O)c2c(nc3n2CCC3O)C1=N` (stereo unspecified), the TGI is 19 µM in test [1]; 45.7 µM in test [2]; 59.6 µM in [3]; 33.1 µM in [4]; 33.5 µM in test [5]; 29.7 µM in test [7]. The TGI worked out at 50.4 µM in [8], 14.6 µM in test [9] and 49.1 µM in test [10].
On to `COc1ccc(C2S/C(=C\c3ccc(O)cc3)C(=O)N2NC(=O)Cc2ccccc2)cc1` (stereo unspecified), for which the TGI in [1], in test [3], in [4], in [5], in test [7] and in test [9] was greater than 100 µM in each case. In test [10], this molecule gave a TGI greater than 100 µM.
As for `O=C(CSC(=S)N1CCOCC1)Nc1nc2c(s1)CCCC2`, the TGI in [1] is greater than 100 µM; in test [2], 61.2 µM; in [3] it was greater than 100 µM; in test [4], greater than 100 µM; in test [5], greater than 100 µM; in test [7], greater than 100 µM. Also, the TGI in test [9] and in test [10] was greater than 100 µM each time.
Take `CC(=O)OC1c2ccccc2CCCCCCC12OCCO2` (stereo unspecified): the TGI in test [1], in test [2], in test [3], in [4], in test [5] and in [7] was greater than 100 µM each time. Further, the TGI in test [8], in test [9] and in test [10] was greater than 100 µM throughout.
Consider `COc1ccc2c(c1)c1c(n2CCN2CCCCC2)-c2ccccc2CC1`, for which the TGI was 33.5 µM in [1]; 20.7 µM in test [2]; 19.3 µM in test [4]; 17.2 µM in test [5]; 35.6 µM in [6]; 31.9 µM in test [7]. In addition, the TGI in test [8] stood at 46.9 µM; in test [12], 28.5 µM; in [9], 42 µM; in [10], 35.1 µM.
As for `O=c1oc2ccccc2n1CCN1CCCCC1`, the TGI in test [1], in [3], in [4], in test [5], in test [7] and in test [8] was greater than 100 µM each time. The TGI in test [12], in test [10] and in test [11] was greater than 100 µM each time.
As for `CC(C)=CCSC1CC2C(CC1(C)O)C2(C)C` (stereo unspecified), the TGI in test [1] was 32 µM and 29.6 µM; in test [2], 3.27 µM and 18.6 µM; in test [3] it was 31.4 µM and 36.2 µM; in test [4], 27.5 µM; in test [5], 29 µM and 28.2 µM; in test [7], 29.8 µM and 25 µM. For the same molecule, the TGI in test [8] is 34.2 µM and 31.8 µM; in [9], 35 µM and 29.2 µM; in [10] it was 30.1 µM and 23.7 µM.
Regarding `CC(C)C1OC(=O)/C=C/C=C/C=C/C=C/C=C/CC(O)CC(O)CC(O)CC(O)CC(O)CC(O)CC(O)CC(O)/C=C/C1C` (stereo unspecified), the TGI in test [1], in test [2], in test [3], in [4], in [5] and in test [7] was greater than 100 µM throughout. In addition, the TGI in test [8], in [9], in test [10] and in test [11] was greater than 100 µM each time.
Turning to `O=c1[nH]nc(Cc2ccccc2)n1Nc1ccccc1`, the TGI in test [1], in test [2], in [3], in test [4], in test [5] and in [7] was greater than 100 µM each time. The TGI in [12], in test [9], in test [10] and in test [11] was greater than 100 µM each time.
As for `NC(=O)N1N=C2c3ccccc3SC[C@H]2[C@@H]1c1ccccc1`, the TGI is greater than 100 µM in test [1]; greater than 100 µM in test [2]; 76.9 µM in test [3]; 53.2 µM in test [4]; 38 µM in [5]; greater than 100 µM in [7]. The TGI in test [8] is greater than 100 µM; in test [9], 73.4 µM.
With `O=C1CCCCc2cccc(O)c21`, the TGI in test [1], in [2], in [3], in [4], in test [5] and in test [6] was greater than 100 µM throughout. The TGI in test [7], in test [8], in test [12], in test [9] and in [10] was greater than 100 µM throughout.
Consider `CCOc1cc(NC(C)=O)ccc1C(=O)NN1C(=O)/C(=C/c2cc(OC)c(OC)c(OC)c2)N=C1c1ccccc1`, for which the TGI in test [1], in [2], in [3], in test [4], in [5] and in test [7] was greater than 100 µM in each case. Also, the TGI in test [8], in test [12], in test [9] and in [11] was greater than 100 µM in each case.
On to `COc1cc2c(c(OC)c1OC)-c1ccc(SC)cc1[C@H](OC(=O)c1ccccc1)CC2`, for which the TGI in test [1] was greater than 78.2 µM; in test [2], 11.7 µM; in [4], 0.634 µM; in test [6], greater than 100 µM; in test [7], greater than 100 µM; in test [9], greater than 100 µM. In addition, the TGI in [10] was greater than 100 µM; in [11] it was 0.0222 µM.
With `CC(C)C1CC(O)O[C@@H]([C@@H](C)[C@H]2CC(=O)[C@@H]3[C@@H]4[C@@H](O)[C@H](O)[C@H]5[C@@H](O)[C@H](O)CC[C@]5(C)[C@H]4CC[C@]23C)C1` (stereo partly specified), the TGI in test [1], in test [2], in [4], in test [5], in test [7] and in [8] was greater than 100 µM each time. Besides, the values for the TGI in test [9] and in test [10] were greater than 100 µM and 54.3 µM, respectively.
Take `N#CC1(C#N)NC(c2ccsc2)C(C#N)(C#N)NC1c1ccsc1` (stereo unspecified): the TGI in test [1], in test [2], in test [3], in test [4], in test [5] and in [7] was greater than 100 µM each time. The TGI in test [8], in test [12], in [9], in [10] and in test [11] was greater than 100 µM in each case.
In the case of `CNC1=CC(=O)C2=C(C1=O)[C@H]1CC[C@]3(C)C(=O)CC[C@H]3[C@@H]1CC2`, the TGI was greater than 52.7 µM in test [1]; 31.7 µM in test [2]; 43.4 µM in test [3]; 25.5 µM in test [4]; 57.9 µM in [6]; 19.9 µM in test [7]. The TGI turned out to be 40.8 µM in [8], 37.4 µM in test [9], 27.8 µM in [10] and 25 µM in [11].
Take `COC(=O)c1csc(-c2nc(CCNC(=O)OC(C)(C)C)sc2Br)n1`: the TGI in [1], in [2], in [3], in [4], in [5] and in [7] was greater than 100 µM each time. For the same molecule, the TGI in test [8], in [12], in test [10] and in test [11] was greater than 100 µM in each case.
`Cc1c(NC(=S)Nc2ccc(Cl)cc2)c(=O)n(-c2ccccc2)n1C`: the TGI in test [2], in [3], in test [4], in [5], in [7] and in [8] was greater than 100 µM each time. The TGI in [12], in test [10] and in test [11] was greater than 100 µM throughout.
On to `N/C(=N/n1c(=S)[nH]c2ccccc2c1=O)Nn1c(=S)[nH]c2ccccc2c1=O`, for which the TGI was greater than 100 µM in [2]; greater than 100 µM in test [3]; 79 µM in [4]; 66.3 µM in test [6]; 62.4 µM in test [7]; greater than 100 µM in test [8]. Also, the figures for the TGI in [9], in test [10] and in test [11] were greater than 100 µM, greater than 100 µM and 85.4 µM, respectively.
On to `CN1CN(c2ccccc2)C2(CCN(CCc3csc4ccccc34)CC2)C1=O`, for which the TGI was 32.1 µM in [1]; 39.6 µM in test [4]; 17.8 µM in [5]; 54.2 µM in test [6]; 42.5 µM in test [7]; 93.4 µM in [8]. In test [10], this molecule displayed a TGI of 38.5 µM.
Take `CCC(CC)n1c(C)nc2c1C(=O)c1ccccc1C2=O`: the TGI in [1] is greater than 100 µM; in test [2], greater than 100 µM; in test [4] it was greater than 100 µM; in test [5], greater than 100 µM; in [7], 54 µM; in [8], greater than 100 µM. The TGI in test [9] and in test [10] was greater than 100 µM each time.
In the case of `CC(C)CCn1c(=O)c2c(=O)[nH][nH]c2c2ccccc21`, the TGI in [1], in [2], in [3], in [4], in [5] and in test [7] was greater than 100 µM throughout. The TGI in [8], in [12], in test [9] and in test [11] was greater than 100 µM in each case.
For `c1cc2c(c(-c3c4ccccc4nc4ccccc34)c1)CC1(CC2)OCCO1`, the TGI in test [1], in test [2], in test [3], in [4], in test [6] and in test [7] was greater than 100 µM in each case. Further, the TGI in [8], in test [9], in test [10] and in [11] was greater than 100 µM throughout.
Take `CC(C)=CCC/C(C)=C/CC/C(C)=C/CC/C(C)=C/CC/C(C)=C\CC/C(C)=C/CC/C(C)=C/CC/C(C)=C/Cc1cc(O)ccc1O`: the TGI was greater than 100 µM in [1]; greater than 48.8 µM in test [2]; 3.51 µM in [3]; 4.65 µM in [4]; 3.81 µM in test [5]; 50.1 µM in [6]. Moreover, the TGI was 1.96 µM in test [7]; greater than 43.6 µM in [8]; 8.93 µM in test [12]; 7.4 µM in [9]; 11.6 µM in test [10].
